{
  "source": "BigSolDB 2.1",
  "data": [
    {"compound": "COc1ccccc1N1CCN(CC(O)COc2cccc3ccccc23)CC1", "note": "(centres undefined)", "values": [
      {"measurement": "solubility (mole fraction)", "setting": "in acetone, 273.15 K", "value": 0.00318},
      {"measurement": "solubility (mole fraction)", "setting": "in acetone, 278.15 K", "value": 0.00399},
      {"measurement": "solubility (mole fraction)", "setting": "in acetone, 283.15 K", "value": 0.00481},
      {"measurement": "solubility (mole fraction)", "setting": "in acetone, 288.15 K", "value": 0.00579},
      {"measurement": "solubility (mole fraction)", "setting": "in acetone, 293.15 K", "value": 0.00676},
      {"measurement": "solubility (mole fraction)", "setting": "in acetone, 298.15 K", "value": 0.00782},
      {"measurement": "solubility (mole fraction)", "setting": "in acetone, 303.15 K", "value": 0.00894},
      {"measurement": "solubility (mole fraction)", "setting": "in acetone, 308.15 K", "value": 0.0102},
      {"measurement": "solubility (mole fraction)", "setting": "in acetone, 313.15 K", "value": 0.0118},
      {"measurement": "solubility (mole fraction)", "setting": "in acetonitrile, 273.15 K", "value": 0.00113},
      {"measurement": "solubility (mole fraction)", "setting": "in acetonitrile, 278.15 K", "value": 0.00132},
      {"measurement": "solubility (mole fraction)", "setting": "in acetonitrile, 283.15 K", "value": 0.00156},
      {"measurement": "solubility (mole fraction)", "setting": "in acetonitrile, 288.15 K", "value": 0.00182},
      {"measurement": "solubility (mole fraction)", "setting": "in acetonitrile, 293.15 K", "value": 0.00208},
      {"measurement": "solubility (mole fraction)", "setting": "in acetonitrile, 298.15 K", "value": 0.00244},
      {"measurement": "solubility (mole fraction)", "setting": "in acetonitrile, 303.15 K", "value": 0.0028},
      {"measurement": "solubility (mole fraction)", "setting": "in acetonitrile, 308.15 K", "value": 0.00321},
      {"measurement": "solubility (mole fraction)", "setting": "in acetonitrile, 313.15 K", "value": 0.00372},
      {"measurement": "solubility (mole fraction)", "setting": "in ethanol, 273.15 K", "value": 0.000817},
      {"measurement": "solubility (mole fraction)", "setting": "in ethanol, 278.15 K", "value": 0.000955},
      {"measurement": "solubility (mole fraction)", "setting": "in ethanol, 283.15 K", "value": 0.00112},
      {"measurement": "solubility (mole fraction)", "setting": "in ethanol, 288.15 K", "value": 0.00131},
      {"measurement": "solubility (mole fraction)", "setting": "in ethanol, 293.15 K", "value": 0.00152},
      {"measurement": "solubility (mole fraction)", "setting": "in ethanol, 298.15 K", "value": 0.00175},
      {"measurement": "solubility (mole fraction)", "setting": "in ethanol, 303.15 K", "value": 0.00198},
      {"measurement": "solubility (mole fraction)", "setting": "in ethanol, 308.15 K", "value": 0.00229},
      {"measurement": "solubility (mole fraction)", "setting": "in ethanol, 313.15 K", "value": 0.00266},
      {"measurement": "solubility (mole fraction)", "setting": "in ethyl acetate, 273.15 K", "value": 0.00438},
      {"measurement": "solubility (mole fraction)", "setting": "in ethyl acetate, 278.15 K", "value": 0.00503},
      {"measurement": "solubility (mole fraction)", "setting": "in ethyl acetate, 283.15 K", "value": 0.00585},
      {"measurement": "solubility (mole fraction)", "setting": "in ethyl acetate, 288.15 K", "value": 0.0067},
      {"measurement": "solubility (mole fraction)", "setting": "in ethyl acetate, 293.15 K", "value": 0.00768},
      {"measurement": "solubility (mole fraction)", "setting": "in ethyl acetate, 298.15 K", "value": 0.0087},
      {"measurement": "solubility (mole fraction)", "setting": "in ethyl acetate, 303.15 K", "value": 0.00998},
      {"measurement": "solubility (mole fraction)", "setting": "in ethyl acetate, 308.15 K", "value": 0.0112},
      {"measurement": "solubility (mole fraction)", "setting": "in ethyl acetate, 313.15 K", "value": 0.0126},
      {"measurement": "solubility (mole fraction)", "setting": "in methanol, 273.15 K", "value": 0.00056},
      {"measurement": "solubility (mole fraction)", "setting": "in methanol, 278.15 K", "value": 0.000636},
      {"measurement": "solubility (mole fraction)", "setting": "in methanol, 283.15 K", "value": 0.000719},
      {"measurement": "solubility (mole fraction)", "setting": "in methanol, 288.15 K", "value": 0.000822},
      {"measurement": "solubility (mole fraction)", "setting": "in methanol, 293.15 K", "value": 0.000922},
      {"measurement": "solubility (mole fraction)", "setting": "in methanol, 298.15 K", "value": 0.00104},
      {"measurement": "solubility (mole fraction)", "setting": "in methanol, 303.15 K", "value": 0.00118},
      {"measurement": "solubility (mole fraction)", "setting": "in methanol, 308.15 K", "value": 0.00133},
      {"measurement": "solubility (mole fraction)", "setting": "in methanol, 313.15 K", "value": 0.0015},
      {"measurement": "solubility (mole fraction)", "setting": "in toluene, 273.15 K", "value": 0.00534},
      {"measurement": "solubility (mole fraction)", "setting": "in toluene, 278.15 K", "value": 0.00633},
      {"measurement": "solubility (mole fraction)", "setting": "in toluene, 283.15 K", "value": 0.00727},
      {"measurement": "solubility (mole fraction)", "setting": "in toluene, 288.15 K", "value": 0.00847},
      {"measurement": "solubility (mole fraction)", "setting": "in toluene, 293.15 K", "value": 0.00978},
      {"measurement": "solubility (mole fraction)", "setting": "in toluene, 298.15 K", "value": 0.0113},
      {"measurement": "solubility (mole fraction)", "setting": "in toluene, 303.15 K", "value": 0.0129},
      {"measurement": "solubility (mole fraction)", "setting": "in toluene, 308.15 K", "value": 0.0149},
      {"measurement": "solubility (mole fraction)", "setting": "in toluene, 313.15 K", "value": 0.017}
    ]}
  ]
}
